Reference: patent US10118966B2, “Anti-EGFR monoclonal antibody, methods of making, and uses thereof in the treatment of cancer” (Shanghai Biomabs Pharmaceuticals Co., Ltd., priority 2015, dated 2018)
Like-named read-outs stand apart in the source and are kept apart here.

Experiments:
[1] = test system: metastatic colorectal cancer; experiment: CMAB009 Ph2/3 trial; type: in vivo, human
Method: 501 patients were identified and randomized in a 2:1 manner to group 1 or group 2. […] Patients in both groups were treated until the disease progressed or the patient reached an unacceptable level of toxicity.
Patients were evaluated for radiologic response in both group 1 and group 2. […] Note the overall response rate (ORR) in Table 6 was determined according to the sum of the rate of CR and PR, and the disease control rate (DCR) was determined according to the sum of the rates of CR, PR, and SD.

[2] = test system: metastatic colorectal cancer; conditions: EPIC, cited from earlier work
[3] = radiologic response, n = 337 / n = 164
[4] = radiologic response, n = 648 / n = 650

SMILES: CCc1c2c(nc3ccc(OC(=O)N4CCC(N5CCCCC5)CC4)cc13)-c1cc3c(c(=O)n1C2)COC(=O)[C@]3(O)CC [Irinotecan monotherapy, irinotecan]
- Time to disease progression ([1]; CMAB009 Ph2/3 trial): 3.2 months
- Test drug-related death AE, no. of patients ([1]; N = 342 / N = 170): 0
- At least one ADR, % ([1]; human, in vivo): (74.1%)
- At least one ADR, no. of patients ([1]; human, in vivo): 126
- At least one AE which lead to stop drug treatment, % ([1]; human, in vivo): (15.9%)
- At least one AE which lead to stop drug treatment, no. of patients ([1]; human, in vivo): 27
- At least one AE, % ([1]; human, in vivo): (87.1%)
- At least one AE, no. of patients ([1]; human, in vivo): 148
- At least one Level III or above ADR, % ([1]; human, in vivo): (5.9%)
- At least one Level III or above ADR, no. of patients ([1]; human, in vivo): 10
- At least one Level III or above AE, % ([1]; human, in vivo): (7.1%)
- At least one Level III or above AE, no. of patients ([1]; human, in vivo): 12
- At least one Level III or above important AE, % ([1]; human, in vivo): (6.5%)
- At least one Level III or above important AE, no. of patients ([1]; human, in vivo): 11
- At least one SAE, % ([1]; human, in vivo): (4.7%)
- At least one SAE, no. of patients ([1]; human, in vivo): 8
- At least one important AE, % ([1]; human, in vivo): (70.6%)
- At least one important AE, no. of patients ([1]; human, in vivo): 120
- At least one test drug-related SAE, % ([1]; human, in vivo): (0.6%)
- At least one test drug-related SAE, no. of patients ([1]; human, in vivo): 1
- Grade 3-4 adverse events: Abdominal pain, no. of patients ([1]; human, in vivo): 0
- Grade 3-4 adverse events: Acne-like rash, no. of patients ([1]; human, in vivo): 0
- Grade 3-4 adverse events: Anemia, no. of patients ([1]; human, in vivo): 3
- Grade 3-4 adverse events: Anemia, rate in parentheses ([1]; human, in vivo): 1.8
- Grade 3-4 adverse events: Any, no. of patients ([1]; human, in vivo): 57
- Grade 3-4 adverse events: Asthenia, no. of patients ([1]; human, in vivo): 6
- Grade 3-4 adverse events: Asthenia, rate in parentheses ([1]; human, in vivo): 3.7
- Grade 3-4 adverse events: Diarrhea, no. of patients ([1]; human, in vivo): 12
- Grade 3-4 adverse events: Diarrhea, rate in parentheses ([1]; human, in vivo): 7.3
- Grade 3-4 adverse events: Fever, no. of patients ([1]; human, in vivo): 1
- Grade 3-4 adverse events: Fever, rate in parentheses ([1]; human, in vivo): 0.9
- Grade 3-4 adverse events: Nausea and vomiting, no. of patients ([1]; human, in vivo): 16
- Grade 3-4 adverse events: Nausea and vomiting, rate in parentheses ([1]; human, in vivo): 9.8
- Grade 3-4 adverse events: Neutropenia, no. of patients ([1]; human, in vivo): 14
- Grade 3-4 adverse events: Neutropenia, rate in parentheses ([1]; human, in vivo): 8.5
- Grade 3-4 adverse events: Stomatitis, no. of patients ([1]; human, in vivo): 0
- Grade 3-4 adverse events: Thrombocytopenia, no. of patients ([1]; human, in vivo): 0
- Complete response, no. of patients [1, 3]: 1
- Complete response, rate in parentheses [1, 3]: (0.6)
- Partial response, no. of patients [1, 3]: 20
- Partial response, rate in parentheses [1, 3]: (12.2)
- Progressive disease, no. of patients [1, 3]: 44
- Progressive disease, rate in parentheses [1, 3]: (26.8)
- Stable disease, no. of patients [1, 3]: 86
- Stable disease, rate in parentheses [1, 3]: (52.4)
- Unable to evaluate, no. of patients [1, 3]: 13
- Unable to evaluate, rate in parentheses [1, 3]: (7.9)
- Overall response rate, no. of patients ([1]; sum of CR and PR, n = 337 / n = 164): 21
- Disease control rate, no. of patients ([1]; sum of CR, PR and SD, n = 337 / n = 164): 107
- Overall response rate, rate in parentheses ([1]; sum of the rate of CR and PR, n = 337 / n = 164): (12.8
- Disease control rate, rate in parentheses ([1]; sum of the rates of CR, PR, and SD, n = 337 / n = 164): (65.2
- Overall survival [2]: 10.0 months
- Time to disease progression [2]: 2.6 months
- Disease control rate, no. of patients ([2]; n = 648 / n = 650): 298
- Disease control rate, rate in parentheses ([2]; n = 648 / n = 650): (45.8)
- Overall response rate, no. of patients ([2]; n = 648 / n = 650): 27
- Overall response rate, rate in parentheses ([2]; n = 648 / n = 650): (4.2
- Complete response, no. of patients [2, 4]: 1
- Complete response, rate in parentheses [2, 4]: (0.2)
- Partial response, no. of patients [2, 4]: 26
- Partial response, rate in parentheses [2, 4]: (4.0)
- Progressive disease, no. of patients [2, 4]: 243
- Progressive disease, rate in parentheses [2, 4]: (37.4)
- Stable disease, no. of patients [2, 4]: 271
- Stable disease, rate in parentheses [2, 4]: (41.7)
- Unable to evaluate, no. of patients [2, 4]: 72
- Unable to evaluate, rate in parentheses [2, 4]: (11.1)
